According to BindingDB's records for doi:10.7270/Q2Z31X4P (The Scripps Research Institute Molecular Screening Center, 2010):

Molecular target: T1, Caspase-3 (Homo sapiens, UniProt P42574)
T1 sequence (P42574 whole entry): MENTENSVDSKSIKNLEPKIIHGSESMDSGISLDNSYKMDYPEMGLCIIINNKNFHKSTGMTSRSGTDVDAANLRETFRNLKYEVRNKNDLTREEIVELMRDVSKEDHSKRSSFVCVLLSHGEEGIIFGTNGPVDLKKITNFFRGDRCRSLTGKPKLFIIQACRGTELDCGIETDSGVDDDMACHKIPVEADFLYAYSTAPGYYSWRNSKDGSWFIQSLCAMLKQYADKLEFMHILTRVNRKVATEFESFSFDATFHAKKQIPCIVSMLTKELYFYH
Test: activation of caspase-3 zymogen – biochemical, absorbance, dose response (AID 489014)

Structure (SMILES)	EC50 [µM]
O=C(CC1=NC2(CCCC2)Cc2ccccc21)C(=O)NN=Cc1ccccc1O [SMR000219463]	> 85.3
O=c1c2c(-c3ccccc3)[nH]n(-c3ccccc3)c-2c(O)n1-c1ccccc1 [SMR000269383]	> 85.3
